# Where two headings read alike, the source gives them in different places. Residues, ends and D or L forms follow the SMILES beside them. No end group written: not given here.
# Key:
# [1] = type: physicochemical; conditions: for solubility / visible turbidity upon peptide addition: pH 7.4
# Acinetobacter baumannii = test: microbe, parasite or virus in culture; type: cell-based; conditions: A. baumannii; for MBC: 24 h of treatment in MHB (method: 1/10 MHB), detected at the end of the biofilm inhibition test, read-out: MBC, Inhibition test after 24 h
# Procedure: For the biofilm inhibition assay the antimicrobial activity test was done in 1/10 MHB using A. baumannii treated with the respective dilutions of NCR169C17–38, meropenem or polymixin B for 24 h. After taking the 5 μl samples at the end of the treatment and placed on LB agar to detect bacterial growth, the rest of the grown bacterial suspensions were discarded from the plate and the remaining biofilm on the walls of the plate was then washed three times with sterile water and stained using 1 % Crystal Violet (CV) for 15 min to visualize the produced biofilm. The non-adherent CV dye was then removed by washing with water three times. The plate was left for complete drying, then the biofilm-bound CV dye was dissolved in 200 µl of 30 % acetic-acid with shaking over 15 min. The absorbance was measured at OD550 using a HIDEX Plate Reader (Hidex Sense Microplate Reader with Plate Reader Software version 5064, Hidex, Finland). All measurements were repeated three times.
# We examined the capacity of NCR169C17–38 to inhibit biofilm formation by Acinetobacter baumannii, a pathogen well known for its robust biofilm production and high level of antibiotic resistance. […] Additionally, at the end of the experiment we determined the quantity of the biofilm and thereby evaluated their ability to inhibit biofilm formation during culturing the bacteria in the presence of different concentrations of the agents (Fig. 1.A). We tested concentrations of NCR169C17–38 ranging from 25 μM to 0.4 μM, meropenem from 100 μM to 1.6 μM and polymyxin B from 3.1 μM to 0.05 μM.
# [2] = system: Acinetobacter baumannii pre-formed biofilm; test: microbe, parasite or virus in culture; type: cell-based; conditions: for degradation of pre-formed biofilm: A. baumannii biofilm pre-formed 24 h, 24 h of treatment, Crystal Violet OD550; for MBC: A. baumannii biofilm pre-formed 24 h in MHB
# Procedure: For the biofilm eradication assay the difference was at the beginning of the experiments when bacteria were pre-cultured for 24 h or 72 h in MHB with a starting OD600 = 0.01. Then bacterial suspensions were removed from the wells followed by washing three times with 200 µl of 1/2 MHB. Subsequently fresh 1/10 MHB was added to the wells containing the respective dilutions of NCR169C17–38, meropenem or polymixin B and the treatment lasted either 3 h or 24 h. Experiments were done in three biological replicates.
# To assess whether the NCR169C17–38 peptide or the tested antibiotics could eradicate pre-formed biofilms, A. baumannii was first cultured in MHB for 24 h, then treated with NCR169C17–38, meropenem or polymyxin B for either 3 h or 24 h, using the same concentration range as in the previous experiment. Both bacterial survival within the pre-formed biofilm and the amount of residual biofilm were assessed. […] In contrast, neither of the two antibiotics completely eliminated the bacteria within the tested concentration range. […] This 24 h of treatment was repeated on mature biofilm (pre-formed for 72 h) and the results were very similar (Supplementary Fig. 1.).
# E. coli = test: microbe, parasite or virus in culture; conditions: for FBC-A: (MBC of Drug A in combination)/(MBC of Drug A alone), combination with NCR169C17–38 (Drug B), checkerboard; for FBC-A / FBC-B / FBC / Action / FBC-A (µM): concentration of Drug A for the indicated action / FBC-B (µM): concentration of Drug B for the indicated action: E. coli; for FBC-A / FBC-A (µM): concentration of Drug A for the indicated action: 3 h 37 °C; for FBC-B: (MBC of NCR169C17–38 in combination)/(MBC alone), value refers to NCR169C17–38 (Drug B) combined with the Drug A; for MBC: Escherichia coli, read-out: Drug A MBC; for FBC: FBC index = FBC-A + FBC-B, Drug A combined with NCR169C17–38; for Action: interaction of Drug A with NCR169C17–38 by FBC index; for FBC-A (µM): concentration of Drug A for the indicated action / FBC-B (µM): concentration of Drug B for the indicated action: value in brackets; for FBC-A (µM): concentration of Drug A for the indicated action: Drug A in combination with NCR169C17–38, checkerboard; for FBC-B (µM): concentration of Drug B for the indicated action: concentration of NCR169C17–38 (Drug B) combined with Drug A
# Procedure: Streptomycin was tested at concentrations ranging from 25 μM to 0.4 μM, meropenem from 200 μM to 3.1 μM, and polymyxin B from 6.3 μM to 0.1 μM. NCR335N1–19 was tested in a concentration range from 3.1 μM to 0.05 μM, while NCR335C13–33 from 12.5 μM to 0.2 μM. […] The initial E. coli density in each well were adjusted to OD600 = 0.01 corresponding to ∼10^6 bacteria/ml. […] The effectiveness of combination treatments was measured using the fractional bactericidal concentration (FBC) index, which is a metric used to assess the interaction between antimicrobial agents, determining whether their combined effect is synergistic, additive, or antagonistic. First, the MBC values of polymyxin B, meropenem, streptomycin, NCR335N1–19, and NCR335C13–33 were determined in E. coli. Subsequently, their combinations with NCR169C17–38 were examined using the FBC index. FBC = FBCA + FBCB. FBCA = (MBCA in combination) / (MBCA alone); FBCB = (MBCB in combination) / (MBCB alone). Experiments were done in three biological replicates.
# The use of multiple antimicrobial agents can simultaneously target different physiological pathways in microbial cells, reducing the likelihood of resistance development and increasing treatment efficacy. To explore this strategy, we assessed the combined antibacterial effects of the NCR169C17–38 peptide with several antibiotics - specifically polymyxin B, meropenem, and streptomycin - against E. coli. […] Combination treatments were then performed using the standard checkerboard titration method, with each agent co-administered with NCR169C17–38.
compound,measurement,setting,value
CC[C@H](C)[C@H](NC(=O)CNC(=O)[C@H](CS)NC(=O)[C@H](Cc1ccc(O)cc1)NC(=O)[C@H](CCCCN)NC(=O)[C@@H](NC(=O)[C@H](Cc1c[nH]cn1)NC(=O)CNC(=O)[C@@H](NC(=O)[C@H](CC(=O)O)NC(=O)[C@@H](N)CCC(=O)O)[C@@H](C)CC)[C@@H](C)CC)C(=O)N[C@H](C(=O)N[C@@H](CC(=O)O)C(=O)N[C@@H](CC(=O)O)C(=O)N[C@@H](CS)C(=O)N[C@@H](Cc1ccc(O)cc1)C(=O)N[C@@H](CCCCN)C(=O)N[C@@H](CO)C(=O)N[C@@H](CCCCN)C(=O)N[C@@H](CCCCN)C(=O)N1CCC[C@H]1C(=O)N[C@@H](CC(C)C)C(=O)N[C@@H](Cc1ccccc1)C(=O)N[C@@H](CCCCN)C(=O)N[C@H](C(=O)N[C@@H](Cc1c[nH]c2ccccc12)C(=O)N[C@@H](CCCCN)C(=O)N[C@@H](CS)C(=O)N[C@H](C(=O)N[C@@H](CCC(=O)O)C(=O)N[C@@H](CC(N)=O)C(=O)N[C@H](C(=O)N[C@@H](CS)C(=O)N[C@H](C(=O)N[C@@H](CC(C)C)C(=O)N[C@@H](Cc1c[nH]c2ccccc12)C(=O)N[C@@H](Cc1ccc(O)cc1)C(=O)N[C@@H](CCCCN)C(N)=O)C(C)C)C(C)C)C(C)C)[C@@H](C)CC)C(C)C [NCR169] (H-EDIGHIKYCGIVDDCYKSKKPLFKIWKCVENVCVLWYK-NH2),solubility / visible turbidity,[1]; pH 5.8,eliminating visible turbidity
same,solubility / visible turbidity upon peptide addition,[1],visible white turbidity
C[C@@H](O)[C@H]1C(=O)N2C(C(=O)O)=C(S[C@@H]3CN[C@H](C(=O)N(C)C)C3)[C@H](C)[C@H]12 [Meropenem],"inhibition of biofilm formation (Crystal Violet, OD550)","Acinetobacter baumannii; 24 h treatment, NCR169C17–38 25-0.4 μM, meropenem 100-1.6 μM, polymyxin B 3.1-0.05 μM",remaining effective even at lower doses
same,MBC,Acinetobacter baumannii; Acinetobacter baumannii,50 µM
same,degradation of pre-formed biofilm,[2],successful even at sub-MBC level
same,MBC,"[2]; Acinetobacter baumannii, 3 h treatment (method: 1/10 MHB), read-out: MBC, Eradication test after 3 h",> 100 µM
same,MBC,"[2]; Acinetobacter baumannii, 24 h treatment (method: 1/10 MHB), read-out: MBC, Eradication test after 24 h",> 100 µM
same,FBC-A,E. coli,0.25
same,FBC-B,E. coli,0.25
same,MBC,E. coli; 3 h,200 µM
same,FBC,E. coli,0.5
same,Action,E. coli,Synergism (< 0.5: synergism)
same,FBC-A (µM): concentration of Drug A for the indicated action,E. coli,50 µM
same,FBC-B (µM): concentration of Drug B for the indicated action,E. coli,0.4 µM
Polymyxin B,MBC,Acinetobacter baumannii,0.8 µM
same,degradation of pre-formed biofilm,[2],required at least their MBC or higher concentrations
same,MBC,"[2]; 3 h treatment (method: 1/10 MHB), read-out: MBC, Eradication test after 3 h",>3.2 µM
same,MBC,"[2]; 24 h treatment (method: 1/10 MHB), read-out: MBC, Eradication test after 24 h",>3.2 µM
same,eradication of pre-formed biofilms at sub-MBC concentration,"[2]; A. baumannii, as stated in the abstract",not observed
same,FBC-A,E. coli,0.125
same,FBC-B,E. coli,0.25
same,Drug A MBC,"E. coli; Drug A alone, E. coli ~10^6 bacteria/ml, MHB/PPB mixture, 3 h at 37 °C, plated on LB agar, three biological replicates",0.8 µM
same,FBC,E. coli,0.38
same,Action,E. coli,Synergism (< 0.5: synergism)
same,FBC-A (µM): concentration of Drug A for the indicated action,E. coli,0.1 µM
same,FBC-B (µM): concentration of Drug B for the indicated action,E. coli,0.4 µM
RLNTTFRPLNFKMLRFWGQ-NH2 [NCR335N1–19],Drug A MBC,E. coli; 3 h,3.125 µM
same,FBC-A,E. coli,0.5
same,FBC-B,E. coli,0.01
same,FBC,E. coli,0.5
same,Action,E. coli,Synergism (< 0.5: synergism)
same,FBC-A (µM): concentration of Drug A for the indicated action,E. coli,1.6 µM
CC[C@H](C)[C@H](NC(=O)[C@@H]1CCCN1C(=O)[C@@H](NC(=O)[C@H](CS)NC(=O)[C@H](Cc1ccc(O)cc1)NC(=O)[C@H](CO)NC(=O)[C@H](CCCCN)NC(=O)[C@H](CCCNC(=N)N)NC(=O)[C@H](CS)NC(=O)[C@H](CCCNC(=N)N)NC(=O)[C@@H](NC(=O)[C@H](CC(N)=O)NC(=O)[C@H](C)NC(=O)[C@H](CCCNC(=N)N)NC(=O)[C@H](CCCNC(=N)N)NC(=O)[C@H](CC(C)C)NC(=O)[C@H](CCCCN)NC(=O)[C@@H]1CCCN1C(=O)[C@H](CS)NC(=O)[C@H](CC(=O)O)NC(=O)[C@@H](N)CCCCN)C(C)C)C(C)C)C(N)=O [NCR335C13–33] (H-KDCPKLRRANVRCRKSYCVPI-NH2; N-terminus and C-terminus assumed),Drug A MBC,E. coli; 3 h,12.5 µM
same,FBC-A,E. coli,0.5
same,FBC-B,E. coli,0.03
same,FBC,E. coli,0.5
same,Action,E. coli,Synergism (< 0.5: synergism)
same,FBC-A (µM): concentration of Drug A for the indicated action,E. coli,6.25 µM
same,FBC-B (µM): concentration of Drug B for the indicated action,E. coli,0.048 µM
[H]/N=C(/N)N[C@H]1[C@H](O)[C@@H](O)[C@H](O[C@@H]2O[C@@H](C)[C@](O)(C=O)[C@H]2O[C@@H]2O[C@@H](CO)[C@H](O)[C@@H](O)[C@@H]2NC)[C@@H](N/C(N)=N\[H])[C@@H]1O [Streptomycin],FBC-A,E. coli,0.5
same,FBC-B,E. coli,0.5
same,MBC,E. coli; 3 h,3.12 µM
same,FBC,E. coli,1
same,Action,E. coli,Additive (0.5 < FBC < 1.0: additive)
same,FBC-B (µM): concentration of Drug B for the indicated action,E. coli,0.8 µM
"EDIGHIKYSGIVDDSYKSKKPLFKIWKSVENVSVLWYK-NH2 [NCR169-C9,15,28,33/S]",solubility / visible turbidity upon peptide addition,[1],no visible turbidity
